The structures appear in SMILES notation. Entries after “also recorded” stand apart in the source; their conditions may differ.

The ED50 is the dose at which the effect has come halfway, by size or by number of responders.

The test system of series [1] is presynaptic α2-adrenoceptor. The series can be described thus: Presynaptic α2-adrenoceptor agonist activity: reduction of induced submaximal tachycardia in pithed rat. The format is in vivo, Wistar rat. The note with it: for effect on induced submaximal tachycardia / presynaptic α2-adrenoceptor agonist activity: electrically stimulated spinal cord.
Another series is described as follows: Solubility in water. The format is physicochemical. The note with it: hydrochloride.
The subject of series [2] is postsynaptic α1-adrenoceptor. Description: Vasoconstrictor effect in pithed rat after specific postsynaptic α1-adrenoceptor antagonist prazosine. The format is in vivo, Wistar rat. The note with it: for ED50 after prazosine: I.V. The text has this: (§1) (1) The vaso-constrictor properties and potency of the compounds (I) object of the present invention have been investigated and quantified in the anaesthetized pithed rat by determination of their dose-[…] response curves after intravenous administration, according to the technique described by Shipley and Tilden (Proceedings of Society of Experimental Biology, 1947, 64, pages 453-455). This technique allows assessment of the postsynaptic α-adrenoceptor agonist properties of a drug. […] For each of these drugs, log of cumulative doses-hypertensive response curves after intravenous administration have been drawn in groups of eight Wistar rats, anaesthetized, pithed, bilaterally vagotomized, atropinized and treated with d-tribocurarine. ED50 s (doses in mg/kg of the base inducing 50% of the maximal response) were then calculated for each drug and compared to those of the reference compounds.
(§2) For each of the three drugs log of cumulative doses-hypertensive response curves after intravenous administration have been drawn and their ED50 s (in μg per kg) were calculated before and after administration of the antagonists in groups of 8 animals each.

The subject of series [3] is postsynaptic α1-adrenoceptor. Description: Vasoconstrictor (hypertensive) dose-response in anaesthetized pithed rat, i.v. The format is in vivo, Wistar rat. The note with it: for Relative power towards Cirazoline: Table I; for Relative power towards Cirazoline / potency relative to Cirazoline / potency relative to Fenoxazoline / ED50: pithed rat; for ED50 (before antagonists): Table II, before administration of antagonists; for ED50: dose of base inducing 50% of maximal response.
Source text: as §1
Table I reports the values of these ED50 s. It appears from this table that compounds ND 83201 and ND 83204 are the most powerful vaso-constrictor agents, their potency being about 1.75 times that of Cirazoline and three times that of Fenoxazoline.

A further series has as its system β-adrenoceptor. The series can be described thus: Vasoconstrictor ED50 after β-adrenoceptor antagonist pretreatment (β-adrenoceptor postsynaptic agonist activity). The format is in vivo, Wistar rat. The note with it: propranold 150 μg/kg/min/5 min. From the text:
(d) ND 83201 has no β-adrenoceptor postsynaptic agonist activity.

Series [4] has as its system presynaptic α2-adrenoceptor. Description: Presynaptic α2-adrenoceptor antagonist activity: restoration of tachycardia reduced by clonidine in pithed rat. The note with it: for Heartbeat frequency under electric stimulation (supramaximal tachycardia): before clonidine and tested substance; for Heartbeat frequency under electric stimulation and after clonidine: clonidine 40 μg/kg, I.V., before tested substance; for restoration of submaximal tachycardia / presynaptic α2-adrenoceptor antagonist activity: in words, after clonidine 40 μg/kg I.V.

For a further series, the system named is α1-adrenoceptor. Description: Vasoconstrictor effect in pithed rat after reserpine pre-treatment (direct action). The format is in vivo, Wistar rat. The note with it: except in very high doses.
Source text: as §1
(a) ND 83201 is a directly acting α1 -adrenoceptor agonist.

Series [5] concerns postsynaptic α2-adrenoceptor. Description: Vasoconstrictor effect in pithed rat after specific postsynaptic α2-adrenoceptor antagonist yohimbine. The format is in vivo, Wistar rat. The note with it: for ED50 after yohimbine: I.V.; for ED50 after yohimbine / antagonism of vasoconstrictor effect by yohimbine / ED50 after / ED50 before yohimbine: yohimbine 60 μg/kg/min./5 mins.; for postsynaptic α2-adrenoceptor agonist properties / antagonism of vasoconstrictor effect by yohimbine: in words.
Source text: as §1, §2

Series [6] in a line: Stability of aqueous solution (hydrolysis of the imidazoline cycle). The format is physicochemical. The note with it: 1 per mill aqueous solution, room temperature.
Series [7] has as its system postsynaptic α1-adrenoceptor. The note with it: literature; cited from earlier work.

Take `Clc1cccc(Cl)c1N=C1NCCN1` [clonidine]: the “effect on induced submaximal tachycardia / presynaptic α2-adrenoceptor agonist activity” value in [1] was “reduced the submaximal tachycardia”. The “antagonism of clonidine effect by yohimbine” value in [1] (submaximal tachycardia) is “effect antagonized by yohimbine”.

In the case of `Cc1ccc(C2CC2)c(OCC2=NCCN2)c1` [ND 83201, (5'-methyl-2'-cyclopropyl)-2-phenyloxymethyl-Δ2-imidazoline], the solubility in water result in “Solubility in water” is on record as “not very soluble in water”. Further, in series [2] (prazosine 20 μg/kg/min./5 min.), the ED50 after prazosine was 7.284 ± 0.974 µg/kg and the “ED50 after / ED50 before prazosine” value turned out to be 11.56. In series [2] (in words), the “nature of agonist effect (postsynaptic α1-adrenoceptor)” value was “specific and direct postsynaptic α1 -adrenoceptor agonist effects”. Also, the “antagonism of vasoconstrictor effect by prazosine” value in series [2] (in words, prazosine 20 μg/kg/min./5 min.) was “strongly antagonized by prazosine and even slightly more than those of Cirazoline and Fenoxazoline”. Besides, in series [3], the “Relative power towards Cirazoline” value came to 1.75, the “ED50 (before antagonists)” value amounted to 0.630 ± 0.060 µg/kg, the “potency relative to Cirazoline” value is on record as “about 1.75 times” and the “potency relative to Fenoxazoline” value was “three”. In addition, the ED50 in series [3] came out at 0.630 ± 0.060 µg/kg. Also, the “ED50 change after β-adrenoceptor antagonist / β-adrenoceptor postsynaptic agonist activity” value in the series on β-adrenoceptor is listed as “not modified”. In addition, the “effect on induced submaximal tachycardia / presynaptic α2-adrenoceptor agonist activity” value in series [1] was “completey devoid of any presynaptic α2 -adrenoceptor agonist activity and no”. For the same molecule, the “effect on induced submaximal tachycardia / presynaptic α2-adrenoceptor agonist activity” value in [1] (listed as ND 83 201) is “no presynaptic α2 -adrenoceptor agonist activity”. In [4], the “Heartbeat frequency under electric stimulation (supramaximal tachycardia)” value (shortened to “Heartbeat frequency … (supramaximal tachycardia)”) came out at 448.7 ± 7.7; the “Heartbeat frequency under electric stimulation and after clonidine” value (“Heartbeat frequency … after clonidine” below) is listed as 391.2 ± 5.9; the “restoration of submaximal tachycardia / presynaptic α2-adrenoceptor antagonist activity” value is “no presynaptic α2 -adrenoceptor antagonist activity and no effect and no”. Moreover, in the series on α1-adrenoceptor, the “effect of reserpine pre-treatment on vasoconstrictor effects” value (shortened to “effect of reserpine pre-treatment”) is reported as “not, except in very high doses, modified”. In [5], the ED50 after yohimbine turned out to be 0.805 ± 0.076 µg/kg, the “postsynaptic α2-adrenoceptor agonist properties” value is on record as “no postsynaptic α2-adrenoceptor agonist”, the “antagonism of vasoconstrictor effect by yohimbine” value is listed as “almost not antagonized by yohimbine” and the “ED50 after / ED50 before yohimbine” value is recorded as 1.25.

As to `Clc1ccc(C2CC2)c(OCC2=NCCN2)c1` [ND 83 204, (5'-chloro-2'-cyclopropyl)-2-phenoxymethyl-Δ2-imidazoline], in [6], the “appearance of hydrolysis product (amino-amide (V)) in aqueous solution” value is on record as “even after one month, no trace of hydrolysis is yet detectable”. For the same molecule, the solubility in water result in the series “Solubility in water” is “not very soluble in water”. Further, in [3], the “Relative power towards Cirazoline” value was 1.72, the “potency relative to Cirazoline” value is “about 1.75 times”, the “potency relative to Fenoxazoline” value is given as “three” and the ED50 was 0.644 ± 0.050 µg/kg.

On to `c1ccc(C2CC2)c(OCC2=NCCN2)c1` [Cirazoline, (2'-cyclopropyl)-2-phenyloxymethyl-Δ2-imidazoline], for which the “appearance of hydrolysis product (amino-amide (V)) in aqueous solution” value in series [6] is listed as “after a few days the appearance of the cleaving product by hydrolysis of the imidazoline cycle”. In addition, in series [2] (prazosine 20 μg/kg/min./5 min.), the ED50 after prazosine worked out at 8.568 ± 0.721 µg/kg and the “ED50 after / ED50 before prazosine” value is 7.75. Further, in series [2] (in words), the “nature of agonist effect (postsynaptic α1-adrenoceptor)” value was “specific and direct postsynaptic α1 -adrenoceptor agonist effects”. In series [3], the “Relative power towards Cirazoline” value worked out at 1, the “ED50 (before antagonists)” value is 1.105 ± 0.132 µg/kg and the ED50 was determined as 1.105 ± 0.132 µg/kg. The “known vasoconstrictor / postsynaptic α1-adrenoceptor agonist activity” value in series [7] was “the most powerful and specific postsynaptic α1-adrenoceptor agonist known up to now; also recorded: powerful nasal vasoconstrictor”. Besides, the “effect on induced submaximal tachycardia / presynaptic α2-adrenoceptor agonist activity” value in series [1] is “completey devoid of any presynaptic α2 -adrenoceptor agonist activity and no”. In [4], the “Heartbeat frequency … (supramaximal tachycardia)” value is recorded as 452.1 ± 10.5; the “Heartbeat frequency … after clonidine” value is recorded as 395.7 ± 14.1; the “restoration of submaximal tachycardia / presynaptic α2-adrenoceptor antagonist activity” value was “neither and no effect and no”. Further, in the series on α1-adrenoceptor, the “effect of reserpine pre-treatment” value was “not, except in very high doses, modified”. In addition, in series [5], the ED50 after yohimbine was found to be 1.180 ± 0.108 µg/kg, the “postsynaptic α2-adrenoceptor agonist properties” value is given as “no postsynaptic α2-adrenoceptor agonist”, the “antagonism of vasoconstrictor effect by yohimbine” value was “almost not antagonized by yohimbine” and the “ED50 after / ED50 before yohimbine” value was found to be 1.05.

As to `CC(C)c1ccccc1OCC1=NCCN1` [Fenoxazoline], in series [2] (prazosine 20 μg/kg/min./5 min.), the ED50 after prazosine came out at 16.205 ± 1.240 µg/kg and the “ED50 after / ED50 before prazosine” value was 9.05. For the same molecule, in series [3], the “Relative power towards Cirazoline” value came to 0.62, the “ED50 (before antagonists)” value was 1.790 ± 0.147 µg/kg and the ED50 came to 1.790 ± 0.147 µg/kg. Moreover, the “known vasoconstrictor / postsynaptic α1-adrenoceptor agonist activity” value in series [7] was “postsynaptic α1 -adrenoceptor agonist”. Further, the “effect of reserpine pre-treatment” value in the series on α1-adrenoceptor is listed as “not, except in very high doses, modified”. Also, in [5], the ED50 after yohimbine is 1.804 ± 0.237 µg/kg, the “antagonism of vasoconstrictor effect by yohimbine” value is listed as “almost not antagonized by yohimbine” and the “ED50 after / ED50 before yohimbine” value is on record as 1.01.

With `Brc1ccc(C2CC2)c(OCC2=NCCN2)c1` [ND 83 202, (5'-bromo-2'-cyclopropyl)-2-phenoxymethyl-Δ2-imidazoline], in [3], the “Relative power towards Cirazoline” value worked out at 0.25 and the ED50 was found to be 4.422 ± 0.329 µg/kg.

Take `CCCCCc1ccc(C2CC2)c(OCC2=NCCN2)c1` [ND 83 203, (5'-n-pentyl-2'-cyclopropyl)-2-phenyloxymethyl-Δ2-imidazoline]: in series [3], the “Relative power towards Cirazoline” value was 0.015 and the ED50 amounted to 74.182 ± 6.667 µg/kg.

Turning to `Cc1ccc(N(CC2=NCCN2)c2cccc(O)c2)cc1` [Phentolamine], in series [4], the “Heartbeat frequency … (supramaximal tachycardia)” value is given as 455.6 ± 11.5; the “Heartbeat frequency … after clonidine” value stood at 411.2 ± 8.9; the “restoration of submaximal tachycardia / presynaptic α2-adrenoceptor antagonist activity” value is on record as “resores sub-maximal tachycardia”.

These data come from patent US4663340A, “Alpha-adrenoreceptor agonistic 2-[(2-cyclopropyl-5-methyl- or 2-cyclopropyl-5-chlorophenoxy)methyl]-2-imidazolines” (priority 1984, dated 1987).
